Experimental data reported in patent publication US10301351B2, “Stitched polypeptides” (President and Fellows of Harvard College, priority 2007, dated 2019).
Bridge positions count the residues as written; N and C are the ends. Square brackets hold non-standard residues; d marks the D form. S8 = C=CCCCCCC[C@](C)(N)C(=O)O; R5 = C=CCCC[C@@](C)(N)C(=O)O; S5 = C=CCCC[C@](C)(N)C(=O)O; Aib = CC(C)(N)C(=O)O

Legend:
[1] = Circular dichroism, temperature-dependent spectra and thermal unfolding curves; type: physicochemical
Protocol: Peptides were dissolved in water to described concentrations, and the concentrations were determined by absorbance spectroscopy (extinction coefficient for tryptophan, ε280=5690 cm^-1). Circular dichroism spectra were collected on a Jasco J-710 spectropolarimeter equipped with a temperature controller using the following standard measurement parameters: 0.5 nm step resolution, 20 nm/sec speed, 10 accumulations, 1 sec response, 1 nm bandwidth, 0.1 cm path length. All spectra were converted to a uniform scale of molar ellipticity after background subtraction. Temperature-dependent CD spectra of each peptide (94-100 μM) were recorded at varying temperatures (4° C. and every 10° C. from 10° C. to 90° C.) from 260 to 185 nm. CD measurements with varying concentrations (18, 48, 70, and 118 μM) of peptide 4 were performed at 20° C. To generate thermal unfolding curves, the ellipticity at 222 nm for each peptide (94-100 μM) was measured every 1° C. from 4 to 95° C. with temperature slope of 3° C./min. To obtain Tm, we analyzed the thermal unfolding curves using a two-state model as previously described with 95% confidence interval (see […]. Biophysic. J. 2003, 85, 1457-1465). […] However, peptide 4 retained more than 50% of their alpha-helicity even at 95° C.

[2] = molecular target: T1, trypsin (Bos taurus, UniProt P00760); type: in vitro ADME; details: for slope of ln[S] versus time (first order kinetics of trypsin digestion): 0.1 M NH4HCO3 buffer pH 8.0, room temperature
T1 construct: purchased Pierce 20230
T1 sequence (P00760 24-246): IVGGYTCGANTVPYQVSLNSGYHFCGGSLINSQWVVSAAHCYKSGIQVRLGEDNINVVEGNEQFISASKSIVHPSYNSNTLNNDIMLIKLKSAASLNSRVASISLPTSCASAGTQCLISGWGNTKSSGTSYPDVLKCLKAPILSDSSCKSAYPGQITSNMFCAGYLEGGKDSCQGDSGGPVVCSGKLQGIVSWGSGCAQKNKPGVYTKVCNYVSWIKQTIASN
Protocol: 0.4 mL of trypsin immobilized on agarose (Pierce, catalog #20230) was washed with 0.8 mL of a digestion buffer (0.1 M NH4HCO3 buffer, pH 8.0). The gel was separated from the buffer after each wash by centrifugation. The washed enzyme was suspended in 1.6 mL of the digestion buffer. 350 μL of a peptide solution (24 μM) in the digestion buffer was mixed with 150 μL of the enzyme suspension and the resulting mixture was incubated with rapid shaking at room temperature for 10, 30, 90, 135, 180 minutes. The incubation was quenched by filtering off the enzyme, and the residual substrate in the filtrate was quantified by HPLC-based peak detection at 280 nm.

[3] = tested on: chymotrypsin; test: Stability of peptides against chymotrypsin; type: in vitro ADME; details: compared with stapled peptide 5
[4] = Stability of peptides against guanidine hydrochloride (helicity); type: physicochemical

| Compound | helical character by CD (in words) [1] | cooperative melting transition point (in words) ([1]; 4 to 95° C.) | alpha-helicity retained ([1]; at 95° C.) | thermal stability of the helix by CD (in words) ([1]; increasing temperature) | slope of ln[S] versus time (first order kinetics of trypsin digestion) [2] | half-life ([2]; pH 8) [min] | stability against chymotrypsin (in words) [3] | stability against the denaturing agent guanidine hydrochloride (in words) [4] | cooperative melting transition (Tm) ([1]; CD ellipticity at 222 nm, 4 to 95° C., peptide 94-100 μM in water, two-state model) [°C] |
| --- | --- | --- | --- | --- | --- | --- | --- | --- | --- |
| CC(=O)N[C@@H](CCC(=O)O)C(=O)N[C@@H](Cc1c[nH]c2ccccc12)C(=O)N[C@@H](C)C(=O)N[C@@]1(C)CCC/C=C\CCC[C@]2(CCC/C=C/CCCCCC[C@@](C)(C(N)=O)NC(=O)[C@H](Cc3c[nH]cn3)NC(=O)[C@H](C)NC(=O)[C@H](C)NC(=O)[C@H](CC(C)C)NC(=O)[C@H](Cc3ccccc3)NC(=O)[C@H](CCCCN)NC2=O)NC(=O)[C@H](C)NC(=O)[C@H](C)NC(=O)[C@H]([C@@H](C)O)NC1=O [Peptide 4] | displayed the characteristic CD signature of alpha-helices | did not have a cooperative melting transition point | more than 50% | less affected by increasing temperature than single-stapled peptides 5 and 6 | 4.04±0.16×10^−5 min^−1 | 172 | higher level of stability | remains fully helical even at extremely high concentrations of guanidine salt | – |
| Peptide 8: i+4+4 stitched peptide, double RCM product of Table 5 entry XI (SEQ ID 11) (Ac-EWA[S5]TAA[2‑amino‑2‑(pent-4-enyl)hept‑6‑enoic acid]KFL[R5]AHA-NH2; staple 8-12, 4-8) | helical character greater than the stapled peptide 5 and less than that of the i+4+7 stitched peptide 4 | did not have a cooperative melting transition point | – | – | – | – | – | – | – |
| Peptide 5: single-stapled peptide, RCM product of Table 5 entry IX (SEQ ID 9) (Ac-EWA[Aib]TAA[R5]KFLAAH[S8]-NH2; staple 8-15 (inferred)) | – | – | – | – | 7.11±0.66×10^−5 min^−1 | – | – | – | 57 |
